According to US20040110771A1, “7-(r)-aminotriazolopyrimidines, the production thereof and use of the same for combatting phytopathogenic fungi” (priority 2000, published 2004):

Tests used:
Format in all cases: in vivo
Puccinia recondita = assay: Curative activity against brown rust of wheat caused by Puccinia recondita; conditions: curative spray 24 h after inoculation, wheat seedlings "Kanzler", 7 days
Outline: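 Wheat seedlings (cv. Kanzler) inoculated with brown rust spores and held 24 h at 90–95% humidity and 20–22°C, then sprayed to runoff with the emulsified compound the next day. Rust development on leaves scored after 7 days in greenhouse at 20–22°C and 65–70% relative humidity.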

Pyrenophora teres = assay: Activity against net blotch of barley caused by Pyrenophora teres; conditions: barley seedlings "Igri", inoculated 24 h after spraying, 6 days
Outline: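 Potted barley seedlings (cv. Igri) were sprayed to runoff with aqueous compound preparation, then inoculated with P. teres spores 24 h after the spray dried. Plants were kept in a greenhouse at 20-24° C and 95-100% relative humidity, and disease was scored visually after 6 days as % infected leaf area.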

Septoria tritici = assay: Protective activity against Septoria foliar blotch disease of wheat caused by Septoria tritici; conditions: wheat seedlings "Riband", inoculated 24 h after spraying, 2 weeks
Protocol: The active compounds were prepared separately or jointly as a 10% strength emulsion in a mixture of 70% by weight of cyclohexanone, 20% by weight of Nekanil® LN (Lutensol® AP6, wetting agent having emulsifying and dispersing action based on ethoxylated alkylphenols) and 10% by weight of Wettol® EM (nonionic emulsifier based on ethoxylated castor oil) and diluted with water to the desired concentration.
Leaves of potted wheat seedlings of the cultivar “Riband” were sprayed to runoff point with an aqueous preparation of active compound which had been prepared from a stock solution made of 10% of active compound, 85% of cyclohexanone and 5% of emulsifier. 24 hours after the spray coating had dried on, they were inoculated with an aqueous spore suspension of Septoria tritici. The suspension contained 2.0×10^6 spores/ml. The test plants were then placed in a greenhouse at 18-22° C. and a relative atmospheric humidity of close to 100%. After 2 weeks, the extent of the development of the disease was determined visually in % infection of the entire leaf area.

[1] = test system: Blumeria graminis forma specialis tritici; assay: Activity against mildew of wheat caused by Blumeria graminis forma specialis tritici; conditions: wheat seedlings "Kanzler", dusted with spores 24 h after spraying, 7 days
Outline: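 Compound, emulsified then diluted in water, sprayed to runoff onto leaves of potted wheat seedlings cv. Kanzler; inoculated with Blumeria graminis f. sp. tritici spores 24 h after the coating dried. Plants kept in greenhouse at 20-24° C., 60-90% relative humidity; mildew scored visually after 7 days as % infected leaf area.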

## CC(C)C(C)Nc1c(-c2c(F)cc(F)cc2F)c(Cl)nc2ncnn12 (centres unmarked) [I.-14]
Puccinia recondita; 16 ppm
  % infection of the leaves after application of an aqueous preparation comprising . . . ppm of active compound: 0%
Puccinia recondita; 63 ppm
  % infection of the leaves after application of an aqueous preparation comprising . . . ppm of active compound: 0%
Pyrenophora teres; 16 ppm
  % infection of the leaves after application of an aqueous preparation comprising . . . ppm of active compound: 3%
Septoria tritici; 16 ppm
  % infection of the leaves after application of an aqueous preparation comprising . . . ppm of active compound: 15%
Septoria tritici; 63 ppm
  % infection of the leaves after application of an aqueous preparation comprising . . . ppm of active compound: 15%
Septoria tritici; 250 ppm
  % infection of the leaves after application of an aqueous preparation comprising . . . ppm of active compound: 15%
[1]; 16 ppm
  % infection of the leaves after application of an aqueous preparation comprising . . . ppm of active compound: 30%
[1]; 63 ppm
  % infection of the leaves after application of an aqueous preparation comprising . . . ppm of active compound: 30%
[1]; 250 ppm
  % infection of the leaves after application of an aqueous preparation comprising . . . ppm of active compound: 20%

## CC(C)[C@H](C)Nc1c(-c2c(F)cc(F)cc2F)c(Cl)nc2ncnn12 [comparison (S)-amine of I.-14]
Puccinia recondita; 16 ppm
  % infection of the leaves after application of an aqueous preparation comprising . . . ppm of active compound: 100%
Puccinia recondita; 63 ppm
  % infection of the leaves after application of an aqueous preparation comprising . . . ppm of active compound: 5%
Pyrenophora teres; 16 ppm
  % infection of the leaves after application of an aqueous preparation comprising . . . ppm of active compound: 40%
Septoria tritici; 16 ppm
  % infection of the leaves after application of an aqueous preparation comprising . . . ppm of active compound: 90%
Septoria tritici; 63 ppm
  % infection of the leaves after application of an aqueous preparation comprising . . . ppm of active compound: 70%
Septoria tritici; 250 ppm
  % infection of the leaves after application of an aqueous preparation comprising . . . ppm of active compound: 70%
[1]; 16 ppm
  % infection of the leaves after application of an aqueous preparation comprising . . . ppm of active compound: 100%
[1]; 63 ppm
  % infection of the leaves after application of an aqueous preparation comprising . . . ppm of active compound: 80%
[1]; 250 ppm
  % infection of the leaves after application of an aqueous preparation comprising . . . ppm of active compound: 80%

## CC[C@H](C)Nc1c(-c2c(Cl)cccc2Cl)c(Cl)nc2ncnn12 [comparison (S)-amine of I.-7]
Puccinia recondita; 16 ppm
  % infection of the leaves after application of an aqueous preparation comprising . . . ppm of active compound: 100%
Pyrenophora teres; 16 ppm
  % infection of the leaves after application of an aqueous preparation comprising . . . ppm of active compound: 100%
Pyrenophora teres; 63 ppm
  % infection of the leaves after application of an aqueous preparation comprising . . . ppm of active compound: 100%
Pyrenophora teres; 250 ppm
  % infection of the leaves after application of an aqueous preparation comprising . . . ppm of active compound: 100%
Septoria tritici; 16 ppm
  % infection of the leaves after application of an aqueous preparation comprising . . . ppm of active compound: 90%
Septoria tritici; 63 ppm
  % infection of the leaves after application of an aqueous preparation comprising . . . ppm of active compound: 90%
Septoria tritici; 250 ppm
  % infection of the leaves after application of an aqueous preparation comprising . . . ppm of active compound: 90%
[1]; 250 ppm
  % infection of the leaves after application of an aqueous preparation comprising . . . ppm of active compound: 100%

## CC(C)C(C)Nc1c(-c2c(F)cccc2F)c(Cl)nc2ncnn12 (centres unmarked) [I.-5]
Puccinia recondita; 63 ppm
  % infection of the leaves after application of an aqueous preparation comprising . . . ppm of active compound: 10%
Puccinia recondita; 250 ppm
  % infection of the leaves after application of an aqueous preparation comprising . . . ppm of active compound: 10%
Pyrenophora teres; 16 ppm
  % infection of the leaves after application of an aqueous preparation comprising . . . ppm of active compound: 20%
Septoria tritici; 16 ppm
  % infection of the leaves after application of an aqueous preparation comprising . . . ppm of active compound: 15%
Septoria tritici; 63 ppm
  % infection of the leaves after application of an aqueous preparation comprising . . . ppm of active compound: 15%
Septoria tritici; 250 ppm
  % infection of the leaves after application of an aqueous preparation comprising . . . ppm of active compound: 15%
[1]; 16 ppm
  % infection of the leaves after application of an aqueous preparation comprising . . . ppm of active compound: 40%
[1]; 63 ppm
  % infection of the leaves after application of an aqueous preparation comprising . . . ppm of active compound: 40%
[1]; 250 ppm
  % infection of the leaves after application of an aqueous preparation comprising . . . ppm of active compound: 20%

## CC(Nc1c(-c2ccccc2Cl)c(Cl)nc2ncnn12)C(C)(C)C [comparison (S)-amine of I.-44a]
Puccinia recondita; 250 ppm
  % infection of the leaves after application of an aqueous preparation comprising . . . ppm of active compound: 100%
Pyrenophora teres; 16 ppm
  % infection of the leaves after application of an aqueous preparation comprising . . . ppm of active compound: 100%
Pyrenophora teres; 63 ppm
  % infection of the leaves after application of an aqueous preparation comprising . . . ppm of active compound: 30%
Septoria tritici; 16 ppm
  % infection of the leaves after application of an aqueous preparation comprising . . . ppm of active compound: 100%
Septoria tritici; 63 ppm
  % infection of the leaves after application of an aqueous preparation comprising . . . ppm of active compound: 100%
Septoria tritici; 250 ppm
  % infection of the leaves after application of an aqueous preparation comprising . . . ppm of active compound: 100%
[1]; 16 ppm
  % infection of the leaves after application of an aqueous preparation comprising . . . ppm of active compound: 100%
[1]; 63 ppm
  % infection of the leaves after application of an aqueous preparation comprising . . . ppm of active compound: 100%
[1]; 250 ppm
  % infection of the leaves after application of an aqueous preparation comprising . . . ppm of active compound: 100%

## CC(C)C(C)Nc1c(-c2c(F)cccc2Cl)c(Cl)nc2ncnn12 [comparison (S)-amine of I.-2]
Puccinia recondita; 16 ppm
  % infection of the leaves after application of an aqueous preparation comprising . . . ppm of active compound: 100%
Puccinia recondita; 63 ppm
  % infection of the leaves after application of an aqueous preparation comprising . . . ppm of active compound: 100%
Puccinia recondita; 250 ppm
  % infection of the leaves after application of an aqueous preparation comprising . . . ppm of active compound: 100%
Septoria tritici; 16 ppm
  % infection of the leaves after application of an aqueous preparation comprising . . . ppm of active compound: 90%
Septoria tritici; 63 ppm
  % infection of the leaves after application of an aqueous preparation comprising . . . ppm of active compound: 90%
Septoria tritici; 250 ppm
  % infection of the leaves after application of an aqueous preparation comprising . . . ppm of active compound: 90%
[1]; 63 ppm
  % infection of the leaves after application of an aqueous preparation comprising . . . ppm of active compound: 100%
[1]; 250 ppm
  % infection of the leaves after application of an aqueous preparation comprising . . . ppm of active compound: 100%

## CC(Nc1c(-c2ccccc2Cl)c(Cl)nc2ncnn12)C(C)(C)C (single isomer, unassigned) [I.-44a]
Puccinia recondita; 250 ppm
  % infection of the leaves after application of an aqueous preparation comprising . . . ppm of active compound: 60%
Pyrenophora teres; 16 ppm
  % infection of the leaves after application of an aqueous preparation comprising . . . ppm of active compound: 60%
Pyrenophora teres; 63 ppm
  % infection of the leaves after application of an aqueous preparation comprising . . . ppm of active compound: 7%
Septoria tritici; 16 ppm
  % infection of the leaves after application of an aqueous preparation comprising . . . ppm of active compound: 60%
Septoria tritici; 63 ppm
  % infection of the leaves after application of an aqueous preparation comprising . . . ppm of active compound: 7%
Septoria tritici; 250 ppm
  % infection of the leaves after application of an aqueous preparation comprising . . . ppm of active compound: 7%
[1]; 16 ppm
  % infection of the leaves after application of an aqueous preparation comprising . . . ppm of active compound: 50%
[1]; 63 ppm
  % infection of the leaves after application of an aqueous preparation comprising . . . ppm of active compound: 30%
[1]; 250 ppm
  % infection of the leaves after application of an aqueous preparation comprising . . . ppm of active compound: 30%

## CC(C)[C@H](C)Nc1c(-c2c(F)cccc2F)c(Cl)nc2ncnn12 [comparison (S)-amine of I.-5]
Puccinia recondita; 63 ppm
  % infection of the leaves after application of an aqueous preparation comprising . . . ppm of active compound: 100%
Puccinia recondita; 250 ppm
  % infection of the leaves after application of an aqueous preparation comprising . . . ppm of active compound: 100%
Pyrenophora teres; 16 ppm
  % infection of the leaves after application of an aqueous preparation comprising . . . ppm of active compound: 80%
Septoria tritici; 16 ppm
  % infection of the leaves after application of an aqueous preparation comprising . . . ppm of active compound: 100%
Septoria tritici; 63 ppm
  % infection of the leaves after application of an aqueous preparation comprising . . . ppm of active compound: 100%
Septoria tritici; 250 ppm
  % infection of the leaves after application of an aqueous preparation comprising . . . ppm of active compound: 100%
[1]; 16 ppm
  % infection of the leaves after application of an aqueous preparation comprising . . . ppm of active compound: 100%
[1]; 63 ppm
  % infection of the leaves after application of an aqueous preparation comprising . . . ppm of active compound: 100%
[1]; 250 ppm
  % infection of the leaves after application of an aqueous preparation comprising . . . ppm of active compound: 100%

## CC[C@@H](C)Nc1c(-c2c(F)cc(OC)cc2F)c(Cl)nc2ncnn12 [I.-16]
Puccinia recondita; 16 ppm
  % infection of the leaves after application of an aqueous preparation comprising . . . ppm of active compound: 7%
Puccinia recondita; 63 ppm
  % infection of the leaves after application of an aqueous preparation comprising . . . ppm of active compound: 0%
Septoria tritici; 63 ppm
  % infection of the leaves after application of an aqueous preparation comprising . . . ppm of active compound: 70%
Septoria tritici; 250 ppm
  % infection of the leaves after application of an aqueous preparation comprising . . . ppm of active compound: 70%
[1]; 16 ppm
  % infection of the leaves after application of an aqueous preparation comprising . . . ppm of active compound: 40%
[1]; 63 ppm
  % infection of the leaves after application of an aqueous preparation comprising . . . ppm of active compound: 40%
[1]; 250 ppm
  % infection of the leaves after application of an aqueous preparation comprising . . . ppm of active compound: 20%

## CC[C@H](C)Nc1c(-c2c(F)cc(OC)cc2F)c(Cl)nc2ncnn12 [comparison (S)-amine of I.-16]
Puccinia recondita; 16 ppm
  % infection of the leaves after application of an aqueous preparation comprising . . . ppm of active compound: 100%
Puccinia recondita; 63 ppm
  % infection of the leaves after application of an aqueous preparation comprising . . . ppm of active compound: 5%
Septoria tritici; 63 ppm
  % infection of the leaves after application of an aqueous preparation comprising . . . ppm of active compound: 90%
Septoria tritici; 250 ppm
  % infection of the leaves after application of an aqueous preparation comprising . . . ppm of active compound: 90%
[1]; 16 ppm
  % infection of the leaves after application of an aqueous preparation comprising . . . ppm of active compound: 100%
[1]; 63 ppm
  % infection of the leaves after application of an aqueous preparation comprising . . . ppm of active compound: 100%
[1]; 250 ppm
  % infection of the leaves after application of an aqueous preparation comprising . . . ppm of active compound: 100%

## CCC(C)Nc1c(-c2c(Cl)cccc2Cl)c(Cl)nc2ncnn12 (centres unmarked) [I.-7]
Puccinia recondita; 16 ppm
  % infection of the leaves after application of an aqueous preparation comprising . . . ppm of active compound: 40%
Pyrenophora teres; 16 ppm
  % infection of the leaves after application of an aqueous preparation comprising . . . ppm of active compound: 80%
Pyrenophora teres; 63 ppm
  % infection of the leaves after application of an aqueous preparation comprising . . . ppm of active compound: 30%
Pyrenophora teres; 250 ppm
  % infection of the leaves after application of an aqueous preparation comprising . . . ppm of active compound: 15%
Septoria tritici; 16 ppm
  % infection of the leaves after application of an aqueous preparation comprising . . . ppm of active compound: 70%
Septoria tritici; 63 ppm
  % infection of the leaves after application of an aqueous preparation comprising . . . ppm of active compound: 30%
Septoria tritici; 250 ppm
  % infection of the leaves after application of an aqueous preparation comprising . . . ppm of active compound: 15%
[1]; 250 ppm
  % infection of the leaves after application of an aqueous preparation comprising . . . ppm of active compound: 60%
